# In paper PMC8284461, “Piperidine-4-Carboxamides Target DNA Gyrase in Mycobacterium abscessus” (Antimicrobial Agents and Chemotherapy, 2021):
# Columns and labels:
# [1] = system: M. abscessus subsp. abscessus ATCC 19977 MXF^r-1 (GyrA D96Y); assay: MIC, resistant mutant; assay type: cell-based, Mycobacterium abscessus; conditions: Mycobacteroides abscessus, ATCC19977
# [2] = system: M. abscessus subsp. abscessus Bamboo 844^r-3 (GyrB S473W); assay: MIC, resistant mutant; assay type: cell-based, Mycobacterium abscessus; conditions: Mycobacteroides abscessus
# [3] = system: M. abscessus subsp. abscessus ATCC 19977; set-up: method as in PMID 19171799; conditions: abscessus ATCC 19977, erm(41) T28; inducible resistance by sequevar; cited from earlier work
# [4] = system: M. abscessus subsp. abscessus M337; set-up: method as in PMID 19171799; conditions: abscessus M337, erm(41) T28; cited from earlier work
# [5] = system: M. abscessus subsp. bolletii CCUG 50184T; set-up: method as in PMID 19171799; conditions: erm(41) T28; cited from earlier work
# [6] = system: M. abscessus subsp. abscessus M199; set-up: method as in PMID 19171799; conditions: abscessus M199, erm(41) T28; cited from earlier work
# [7] = system: M. abscessus subsp. abscessus K21; set-up: method as in PMID 19171799; conditions: abscessus K21, erm(41) C28; cited from earlier work
# [8] = system: M. abscessus subsp. abscessus ATCC 19977 MXF^r-2 (GyrA D96N); assay: MIC, resistant mutant; assay type: cell-based, Mycobacterium abscessus; conditions: Mycobacteroides abscessus, ATCC19977
# [9] = system: M. abscessus subsp. abscessus M404; set-up: method as in PMID 19171799; conditions: abscessus M404, erm(41) C28; cited from earlier work
# [10] = biological target: recombinant M. abscessus wild-type DNA gyrase (Mycobacteroides abscessus, UniProt B1ME45+B1ME58); assay: biochemical; set-up: species or system Mycobacterium abscessus; conditions: wild-type DNA gyrase; for effect on supercoiling activity: up to 50 μM; for IC50: relaxed pBR322 substrate, read-out: IC50, supercoiling activity
# [11] = system: M. abscessus subsp. abscessus Bamboo 844^r-2 (GyrA D91N); assay: MIC, resistant mutant; assay type: cell-based, Mycobacterium abscessus; conditions: Mycobacteroides abscessus
# [12] = system: M. abscessus subsp. bolletii M232; assay: MIC, broth microdilution; assay type: cell-based, Mycobacterium abscessus; conditions: Mycobacteroides abscessus, 72 h, 90% growth inhibition, 3 days
# Protocol: (§1) MIC was determined using the broth microdilution method in 96-well plates as described previously ([47]). Briefly, a 10-point 2-fold serial dilution of compounds was performed in 96-well plates (Costar 3370; Corning, USA) starting at twice the desired highest concentration. […] One hundred microliters of the bacterial suspension was seeded onto the 96-well plates containing 100 μl of the serially diluted compounds to give a final volume of 200 μl in each well with the final OD600 of 0.005. The plates were sealed with parafilm, placed onto wet paper towels in a lock-lock box and incubated for 3 days at 37°C with orbital shaking at 90 rpm. […] Absorbance values at day 3 were subtracted from the day 0 readout. Percent growth inhibition was calculated by dividing the absolute absorbance value of treated cells with untreated control and multiplying by 100. CLR was included in all MIC experiments as a positive control to monitor assay reproducibility. MIC was defined as 90% of growth inhibition relative to untreated controls.
# [13] = system: M. abscessus subsp. abscessus M199; assay: MIC, broth microdilution; assay type: cell-based, Mycobacterium abscessus; conditions: Mycobacteroides abscessus, 72 h, 90% growth inhibition, 3 days
# Protocol: as §1
# [14] = system: M. abscessus subsp. abscessus Bamboo; assay: MIC, broth microdilution; assay type: cell-based, Mycobacterium abscessus; conditions: abscessus Bamboo wild type, 90% growth inhibition, 3 days
# Protocol: as §1
# [15] = system: M. abscessus subsp. massiliense CCUG 48898T; assay: MIC, broth microdilution; assay type: cell-based, Mycobacterium abscessus; conditions: Mycobacteroides abscessus, 72 h, 90% growth inhibition, 3 days
# Protocol: as §1
# [16] = system: M. abscessus subsp. abscessus M404; assay: MIC, broth microdilution; assay type: cell-based, Mycobacterium abscessus; conditions: Mycobacteroides abscessus, 72 h, 90% growth inhibition, 3 days
# Protocol: as §1
# [17] = system: M. abscessus subsp. massiliense M111; assay: MIC, broth microdilution; assay type: cell-based, Mycobacterium abscessus; conditions: Mycobacteroides abscessus, 72 h, 90% growth inhibition, 3 days
# Protocol: as §1
# [18] = system: M. abscessus subsp. abscessus M337; assay: MIC, broth microdilution; assay type: cell-based, Mycobacterium abscessus; conditions: Mycobacteroides abscessus, 72 h, 90% growth inhibition, 3 days
# Protocol: as §1
# [19] = system: M. abscessus subsp. abscessus K21; assay: MIC, broth microdilution; assay type: cell-based, Mycobacterium abscessus; conditions: Mycobacteroides abscessus, 72 h, 90% growth inhibition, 3 days
# Protocol: as §1
# [20] = system: M. abscessus subsp. bolletii CCUG 50184T; assay: MIC, broth microdilution; assay type: cell-based, Mycobacterium abscessus; conditions: Mycobacteroides abscessus, 72 h, 90% growth inhibition, 3 days
# Protocol: as §1
# [21] = system: M. abscessus subsp. bolletii M506; assay: MIC, broth microdilution; assay type: cell-based, Mycobacterium abscessus; conditions: Mycobacteroides abscessus, 72 h, 90% growth inhibition, 3 days
# Protocol: as §1
# [22] = system: M. abscessus subsp. abscessus ATCC 19977; assay: MIC, broth microdilution; assay type: cell-based, Mycobacterium abscessus; conditions: abscessus ATCC 19977 wild type, 90% growth inhibition, 3 days
# Protocol: as §1
# [23] = system: M. abscessus subsp. abscessus M421; assay: MIC, broth microdilution; assay type: cell-based, Mycobacterium abscessus; conditions: Mycobacteroides abscessus, 72 h, 90% growth inhibition, 3 days
# Protocol: as §1
# [24] = system: M. abscessus subsp. abscessus M9; assay: MIC, broth microdilution; assay type: cell-based, Mycobacterium abscessus; conditions: Mycobacteroides abscessus, 72 h, 90% growth inhibition, 3 days
# Protocol: as §1
# [25] = system: M. abscessus subsp. abscessus M421; set-up: method as in PMID 19171799; conditions: abscessus M421, erm(41) T28; cited from earlier work
# [26] = system: M. abscessus subsp. massiliense CCUG 48898T; set-up: method as in PMID 19171799; conditions: erm(41) deletion; cited from earlier work
# [27] = system: M. abscessus subsp. abscessus ATCC 19977 844-TMF^r-4 (GyrB M474I); assay: MIC, resistant mutant; assay type: cell-based, Mycobacterium abscessus; conditions: Mycobacteroides abscessus, ATCC19977
# [28] = system: M. abscessus subsp. bolletii M232; set-up: method as in PMID 19171799; conditions: bolletii M232, erm(41) T28; cited from earlier work
# [29] = system: M. abscessus subsp. massiliense M111; set-up: method as in PMID 19171799; conditions: massiliense M111, erm(41) deletion; cited from earlier work
# [30] = system: M. abscessus subsp. abscessus M9; set-up: method as in PMID 19171799; conditions: abscessus M9, erm(41) T28; cited from earlier work
# [31] = system: M. abscessus subsp. abscessus Bamboo; set-up: method as in PMID 19171799; conditions: erm(41) C28; cited from earlier work
# [32] = system: M. abscessus subsp. abscessus ATCC 19977 MXF^r-3 (GyrA D96G); assay: MIC, resistant mutant; assay type: cell-based, Mycobacterium abscessus; conditions: Mycobacteroides abscessus, ATCC19977
# [33] = system: M. abscessus subsp. bolletii M506; set-up: method as in PMID 19171799; conditions: bolletii M506, erm(41) C28; cited from earlier work
# [34] = system: P4C-resistant M. abscessus strains; assay: Cross-resistance, MICs for P4C-resistant strains; assay type: cell-based, Mycobacterium abscessus; conditions: P4C-resistant strains of Table 2
# [35] = biological target: GyrA D91N mutant recombinant M. abscessus DNA gyrase (Mycobacteroides abscessus, UniProt B1ME45+B1ME58, D91N); assay type: biochemical, Mycobacterium abscessus
# [36] = system: M. abscessus subsp. abscessus ATCC 19977 biofilm; assay: Antibiofilm activity, MBEC biofilm assay; assay type: cell-based, Mycobacterium abscessus; conditions: 1×, 4×, 8× MIC; surface-attached CFU after 2 and 3 days
# Protocol: The antibiofilm activity of 844 and 844-TMF was determined employing the MBEC 96-well Biofilm assay kit (19111; Innovotech, Edmonton, AB, Canada) as described previously ([15]) with minor modifications. Briefly, exponentially growing M. abscessus subsp. abscessus ATCC 19977 cultures were spun down at 3,200 × g for 10 min and washed with 7H9 broth without Tween 80 (‘7H9’). Bacteria were resuspended in ‘7H9’ to an OD600 of 0.0125, and 150 μl was dispensed into the wells of Innovotech 96-well plates. Pegs (protruding from the specialized lids of the Innovotech multiwell plates) were inserted into the bacterial suspensions in the wells, and the cultures were grown 24 h with shaking at 110 rpm at 37°C to allow attachment and growth of the bacteria on the surface of the pegs. […] Biofilm growth on the pegs was measured by CFU determination. The pegs were washed in 200 μl ‘7H9’ medium, removed, and placed in 1.7-ml microcentrifuge tubes (87003-294; VWR, Radnor, PA, USA) containing 500 μl PBS/Tween 80 (0.025%). The tubes were vortexed at 2,000 rpm for 90 s to detach and suspend the bacteria from the pegs before samples were serially diluted and plated onto 7H10 agar supplemented with 0.4% activated charcoal to determine CFU/peg.
# [37] = system: M. abscessus subsp. abscessus Bamboo; assay: Selection and characterization of spontaneous resistant mutants; assay type: cell-based, Mycobacterium abscessus; conditions: agar with 8× MIC
# [38] = system: M. abscessus subsp. abscessus ATCC 19977; assay: Time-concentration kill assay, planktonic cultures; assay type: cell-based, Mycobacterium abscessus; conditions: 1×, 4×, 8× MIC; CFU after 2 and 3 days
# Protocol: At 0, 2, and 3 days, tubes were vortexed, and 20 μl of the cultures was transferred to round-bottom 96-well plates containing 180 μl of phosphate-buffered saline (PBS) (10010023; Thermo Fisher, USA) with 0.025% Tween 80 (PBS/Tween 80) for 10-fold serial dilution. To prevent compound carryover effects, we plated out serially diluted samples onto 7H10 agar supplemented with 0.4% activated charcoal (C9154; Sigma-Aldrich, USA) for all time points as described ([48]). CFU were enumerated after 4 days of incubation at 37°C.
# [39] = system: M. abscessus complex strains; assay: MIC across reference strains and clinical isolates; assay type: cell-based, Mycobacterium abscessus; conditions: Mycobacteroides abscessus; reference strains and clinical isolates of Table 1; read-out: MICs ranging across the M. abscessus complex strains
# Protocol: as §1
# [40] = Mycobacteroides abscessus, 72 h
# [41] = Mycobacteroides abscessus, ATCC19977, 72 h
# recombinant M. abscessus wild-type DNA gyrase, sequence (B1ME58 entry or part of it): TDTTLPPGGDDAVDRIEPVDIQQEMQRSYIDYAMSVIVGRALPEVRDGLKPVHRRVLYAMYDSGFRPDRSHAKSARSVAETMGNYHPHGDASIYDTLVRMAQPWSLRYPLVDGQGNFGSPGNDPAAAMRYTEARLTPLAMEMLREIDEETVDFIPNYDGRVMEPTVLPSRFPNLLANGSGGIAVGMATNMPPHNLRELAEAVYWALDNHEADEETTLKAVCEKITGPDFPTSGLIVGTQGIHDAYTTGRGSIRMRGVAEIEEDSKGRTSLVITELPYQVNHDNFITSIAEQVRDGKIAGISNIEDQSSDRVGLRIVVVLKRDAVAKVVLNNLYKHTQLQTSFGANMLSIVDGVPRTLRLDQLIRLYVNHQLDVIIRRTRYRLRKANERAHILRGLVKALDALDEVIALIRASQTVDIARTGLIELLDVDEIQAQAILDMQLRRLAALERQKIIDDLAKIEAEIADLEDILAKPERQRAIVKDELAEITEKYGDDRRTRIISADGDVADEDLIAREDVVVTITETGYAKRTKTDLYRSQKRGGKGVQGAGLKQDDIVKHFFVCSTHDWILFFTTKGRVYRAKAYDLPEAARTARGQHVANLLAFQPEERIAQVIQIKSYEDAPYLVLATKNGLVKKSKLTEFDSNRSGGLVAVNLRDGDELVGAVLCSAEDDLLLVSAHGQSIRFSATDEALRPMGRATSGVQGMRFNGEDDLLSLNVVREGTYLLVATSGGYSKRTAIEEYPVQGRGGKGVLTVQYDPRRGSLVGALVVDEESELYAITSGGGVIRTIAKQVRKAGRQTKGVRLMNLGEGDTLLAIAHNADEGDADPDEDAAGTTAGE
# recombinant M. abscessus wild-type DNA gyrase, sequence (B1ME45 entry or part of it): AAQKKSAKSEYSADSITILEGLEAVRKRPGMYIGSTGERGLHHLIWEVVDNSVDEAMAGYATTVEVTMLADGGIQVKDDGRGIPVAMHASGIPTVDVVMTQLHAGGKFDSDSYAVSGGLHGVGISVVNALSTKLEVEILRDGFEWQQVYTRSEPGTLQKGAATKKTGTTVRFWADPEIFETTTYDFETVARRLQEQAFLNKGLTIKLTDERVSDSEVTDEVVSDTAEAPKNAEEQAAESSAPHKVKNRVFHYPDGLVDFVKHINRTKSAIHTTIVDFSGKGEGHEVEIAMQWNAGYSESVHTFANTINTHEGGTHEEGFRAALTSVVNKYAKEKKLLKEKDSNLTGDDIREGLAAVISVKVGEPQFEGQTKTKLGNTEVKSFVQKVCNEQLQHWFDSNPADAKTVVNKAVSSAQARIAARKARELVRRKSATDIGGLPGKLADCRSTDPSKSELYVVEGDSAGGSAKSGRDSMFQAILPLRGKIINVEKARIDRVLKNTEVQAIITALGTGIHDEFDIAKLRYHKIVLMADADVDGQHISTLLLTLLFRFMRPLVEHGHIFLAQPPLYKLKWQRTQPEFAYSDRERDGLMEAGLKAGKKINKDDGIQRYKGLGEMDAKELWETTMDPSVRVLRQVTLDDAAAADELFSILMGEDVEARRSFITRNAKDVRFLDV
# GyrA D91N mutant recombinant M. abscessus DNA gyrase, sequence (B1ME58 2-839, stated change not applied): as the sequence (B1ME58 entry or part of it) above
# GyrA D91N mutant recombinant M. abscessus DNA gyrase, sequence (B1ME45 2-675, stated change not applied): as the sequence (B1ME45 entry or part of it) above
SMILES,MIC [1],MIC [2],MIC [8],effect on supercoiling activity [10],MIC [11],MIC [12],MIC [13],"MIC [14, 40]",MIC [15],MIC [16],MIC [17],MIC [18],MIC [19],MIC [20],MIC [21],"MIC [22, 41]",MIC [23],MIC [24],MIC [27],MIC [32],also measured
"CC[C@H]1OC(=O)[C@H](C)[C@@H](O[C@H]2C[C@@](C)(OC)[C@@H](O)[C@H](C)O2)[C@H](C)[C@@H](O[C@@H]2O[C@H](C)C[C@H](N(C)C)[C@H]2O)[C@](C)(OC)C[C@@H](C)C(=O)[C@H](C)[C@@H](O)[C@]1(C)O [CLR, clarithromycin]",2 µM,0.4 µM,1 µM,did not affect the activity of the enzyme,0.3 µM,3.2 µM,3.2 µM,0.4 µM,0.2 µM,0.8 µM,0.2 µM,3.2 µM,0.6 µM,1.2 µM,0.8 µM,2 µM,3.2 µM,3.2 µM,2 µM,1 µM,CLR susceptibility [3]: Resistant; CLR susceptibility [4]: Resistant; CLR susceptibility [5]: Resistant; CLR susceptibility [6]: Resistant; CLR susceptibility [7]: Sensitive; CLR susceptibility [9]: Sensitive; MIC [22]: 2 µM; CLR susceptibility [25]: Resistant; CLR susceptibility [26]: Sensitive; CLR susceptibility [28]: Resistant; CLR susceptibility [29]: Sensitive; CLR susceptibility [30]: Resistant; CLR susceptibility [31]: Sensitive; CLR susceptibility [33]: Sensitive
"COc1c(N2C[C@@H]3CCCN[C@@H]3C2)c(F)cc2c(=O)c(C(=O)O)cn(C3CC3)c12 [MXF, moxifloxacin]",100 µM,2 µM,80 µM,,30 µM,1.5 µM,2.5 µM,4 µM,6.3 µM,3 µM,3.2 µM,1.5 µM,3 µM,6.3 µM,2.5 µM,3 µM,1.5 µM,1.5 µM,2 µM,80 µM,MIC [14]: 4 µM
CCNC(=O)Nc1nc2cc(-c3cnc(C(C)(C)O)nc3)c(F)c([C@H]3CCCO3)c2[nH]1 [SPR719],0.8 µM,0.05 µM,0.2 µM,inhibited supercoiling activity,0.1 µM,1.5 µM,1.5 µM,0.8 µM,3 µM,1.5 µM,6.3 µM,0.8 µM,1.5 µM,1.5 µM,1.5 µM,0.6 µM,0.8 µM,1.5 µM,0.3 µM,0.3 µM,"IC50 [10]: 2.3 µM; cross-resistance caused by P4C resistance mutations [34]: did not cause cross-resistance; IC50, supercoiling activity [35]: same IC50 as the wild-type enzyme"
COc1ccc2nccc(NC(=O)C3CCN(CCc4ccc(Cl)cc4)CC3)c2n1 [compound 844],40 µM,90 µM,15 µM,,> 100 µM,6.3 µM,6.3 µM,12 µM,14 µM,6.3 µM,12.5 µM,6.3 µM,14 µM,14 µM,6.3 µM,8 µM,6.3 µM,6.3 µM,40 µM,15 µM,"bactericidal activity against M. abscessus grown as biofilm [36]: bactericidal; IC50 [10]: 4.6 µM; frequency of spontaneous resistance [37]: 10^−8 /CFU; bactericidal activity in planktonic cultures [38]: bactericidal; MIC [14]: 12 µM; MIC [22]: 8 µM; effect on supercoiling activity ([35]; GyrA D91N mutant DNA gyrase, up to 50 μM): No inhibition; MIC [39]: 6 to 14 µM"
